Among the data in ChEMBL document CHEMBL1139211, “E/Z-rubrolide O, an anti-inflammatory halogenated furanone from the New Zealand ascidian Synoicum n. sp” (J Nat Prod, 2007) are Activity and IC50 values, retold here.

A word on the IC50: it is the concentration that gives 50% inhibition. A higher IC50 goes with weaker potency.

Active and inactive are the calls of the source. No cut-off for these calls is given here.

Test [1] in a line: Viability of human neutrophils by trypan blue assay at 500 uM. Type of test: functional, Neutrophil.
In another test the test system is HL-60. The test is described as follows: Antiproliferative activity against HL60 cells by MTT assay. In kind it is functional, cell-based. To be noted: Homo sapiens. For orientation: Formazan colour is commonly taken as a measure of viable cells.
For test [2], the system named is Neutrophil. Kind of test: Inhibition of superoxide production in human neutrophils. Type of test: functional, cell-based.
In test [3] the test system is Neutrophil. The test is described as follows: Inhibition of PMA-induced adhesion of neutrophils. Type of test: functional, cell-based. Conditions: Homo sapiens.

As for `O=C1O/C(=C\c2ccc(O)c(Br)c2)C(c2cc(Br)c(O)c(Br)c2)=C1Cl` [RUBROLIDE O], in test [1], the Activity amounted to 87%. The 50% inhibitory concentration (IC50) worked out at 33 µM in the test with HL-60 and 35 µM in the test with Neutrophil [2]. Moreover, the outcome with Neutrophil [3] was Active.
